Data: US9434734B2, “Substituted pyrazoloquinazolinones and pyrroloquinazolinones as allosteric modulators of group II metabotropic glutamate receptors” (Domain Therapeutics, priority 2012, dated 2016)

Experiments:
[1] = target: T1, human mGluR2 (hmGluR2) transiently over-expressed in HEK-293 cells (Homo sapiens, UniProt Q14416); assay: Human mGluR2 negative allosteric modulator evaluation using Ca++ functional assay (agonist and NAM activity); type: cell-based; conditions: hmGluR2 in HEK-293 cells, EC80 glutamate, Fluo4AM calcium readout; read-out: mGluR2 negative allosteric modulator activity IC50
T1 construct: expressed in transfected cells; host or cells: HEK-293 cells, transient co-transfection by electroporation
T1 sequence (Q14416 19-872): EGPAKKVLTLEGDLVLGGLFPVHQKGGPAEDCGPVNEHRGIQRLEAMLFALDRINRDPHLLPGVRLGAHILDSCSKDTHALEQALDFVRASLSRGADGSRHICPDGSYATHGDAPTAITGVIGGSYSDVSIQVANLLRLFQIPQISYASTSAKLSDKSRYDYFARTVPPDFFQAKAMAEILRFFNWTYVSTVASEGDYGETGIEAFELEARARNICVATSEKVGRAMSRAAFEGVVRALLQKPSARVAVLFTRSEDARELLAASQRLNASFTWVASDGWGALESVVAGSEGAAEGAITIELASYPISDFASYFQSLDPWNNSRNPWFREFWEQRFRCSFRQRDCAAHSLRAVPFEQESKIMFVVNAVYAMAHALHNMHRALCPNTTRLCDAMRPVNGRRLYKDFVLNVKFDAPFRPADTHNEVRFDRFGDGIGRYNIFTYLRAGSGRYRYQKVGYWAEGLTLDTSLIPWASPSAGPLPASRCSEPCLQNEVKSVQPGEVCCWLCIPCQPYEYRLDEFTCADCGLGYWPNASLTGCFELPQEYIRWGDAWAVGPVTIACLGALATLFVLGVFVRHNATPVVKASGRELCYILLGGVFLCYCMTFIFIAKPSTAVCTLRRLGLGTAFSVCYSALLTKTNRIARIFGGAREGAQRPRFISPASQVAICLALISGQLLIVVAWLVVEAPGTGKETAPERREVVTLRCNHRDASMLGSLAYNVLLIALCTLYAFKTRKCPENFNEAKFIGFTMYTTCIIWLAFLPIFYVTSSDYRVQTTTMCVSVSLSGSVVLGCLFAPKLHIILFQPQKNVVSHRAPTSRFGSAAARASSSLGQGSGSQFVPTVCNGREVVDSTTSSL
Method: Human mGluR2 Negative Allosteric Modulator Evaluation Using Ca^++ Functional Assay
Compounds of the present invention were tested successively for their agonist and negative allosteric modulator activities on human mGluR2 (hmGluR2) transiently over-expressed in HEK-293 cells. They exert agonist activity if they are able to activate mGluR2 by themselves, i.e., in absence of the endogenous agonist glutamate; and they exert negative allosteric modulator activity if they decrease the action of the endogenous agonist glutamate.
HEK-293 cells were maintained in Modified Eagle's Medium supplemented with 10% Foetal Calf Serum, 1% Penicillin/Streptomycin and 1% nonessential amino acids at 37° C./5% CO2.
Cells were plated after transfection onto polyornithine coated, clear bottom, black-walled, 96-well plates and cultured for 24 h.
Receptor activity was detected by changes in intracellular calcium measured using the fluorescent Ca^2+ sensitive dye, Fluo4AM (Molecular Probes).
The day of the assay, medium was aspirated and replaced during 3 hours by medium without serum supplemented with 1% Glutamax, 1% Penicillin/Streptomycin and 1% nonessential amino acids. Then, cells were washed with freshly prepared buffer B (HBSS 1× (PAA), Hepes 20 mM, MgSO4-7H2O 1 mM, Na2CO3 3.3 mM, CaCl2-2H2O 1.3 mM, 0.5% BSA, Probenecid 2.5 mM) and loaded at 37° C./5% CO2 for 1.5 hours with buffer B containing 1 μM Fluo4AM, 0.1 mg/mL Pluronic Acid, 7 μg/mL Glutamate Pyruvate Transaminase and 2 mM sodium pyruvate. Afterwards cells were washed twice with buffer B and 50 μL of this buffer were added to each well.
Agonist and negative allosteric modulator activities of compounds were consecutively evaluated on the same cells plate. […] Then, the cells were stimulated by an EC80 glutamate concentration and fluorescence was recorded for additional 60 s. EC80 glutamate concentration is the concentration giving 80% of the maximal glutamate response. Agonist and/or negative allosteric modulator activity(ies) were evaluated in comparison to basal signal or signal evoked by EC80 glutamate alone, respectively.
For potency determination, a dose-response test was performed using 8 concentrations of each compound of the invention. Dose-response curves were fitted using the sigmoidal dose-response (variable slope) analysis in GraphPad Prism program (Graph Pad Inc) and EC50 of agonist/IC50 of negative allosteric modulator activity was calculated. Dose-response experiments were all performed in duplicate, two times independently.

Structure (SMILES) | IC50 [1] | melting point
CCCn1c(=O)c2ccc(-c3ccc(N)nc3)cc2n2nc(C3CCCC3)cc12.Cl [Example 71, 8-(6-Amino-pyridin-3-yl)-2-cyclopentyl-4-propyl-4H-pyrazolo[1,5-a]quinazolin-5-one] | < 1000 nM | > 250 °C
Cl.Nc1ccc(-c2ccc3c(=O)n(CC(F)F)c4cc(-c5ccccc5)nn4c3c2)cn1 [Example 46, 8-(6-Amino-pyridin-3-yl)-4-(2,2-difluoro-ethyl)-2-phenyl-4H-pyrazolo[1,5-a]quinazolin-5-one] | < 1000 nM | > 250 °C
CC(C)n1c(=O)c2ccc(-c3ccc(N)nc3)cc2n2nc(-c3ccccc3)cc12.Cl [Example 47, 8-(6-Amino-pyridin-3-yl)-4-isopropyl-2-phenyl-4H-pyrazolo[1,5-a]quinazolin-5-one] | < 1000 nM | 214 to 216 °C
Cl.Cn1c(=O)c2ccc(-c3ccc(N)nc3)cc2n2nc(C3CCC3)cc12 [Example 64, 8-(6-Amino-pyridin-3-yl)-2-cyclobutyl-4-methyl-4H-pyrazolo[1,5-a]quinazolin-5-one] | < 1000 nM | > 250 °C
Cn1c(=O)c2ccc(-c3cnco3)cc2n2nc(-c3ccccc3)cc12 [Example 21, 4-Methyl-8-oxazol-5-yl-2-phenyl-4H-pyrazolo[1,5-a]quinazolin-5-one] | < 1000 nM | 222 to 225 °C
Cl.Cn1c(=O)c2ccc(-c3ccc(N)nc3)cc2n2nc(C3CC3)cc12 [Example 63, 8-(6-Amino-pyridin-3-yl)-2-cyclopropyl-4-methyl-4H-pyrazolo[1,5-a]quinazolin-5-one] | < 1000 nM | > 250 °C
CCc1cc2n(C)c(=O)c3ccc(-c4ccc(N)nc4)cc3n2n1.Cl [Example 49, 8-(6-Amino-pyridin-3-yl)-2-ethyl-4-methyl-4H-pyrazolo[1,5-a]quinazolin-5-one] | < 1000 nM | > 250 °C
Cn1c(=O)c2ccc(-c3cn[nH]c3)cc2n2nc(-c3ccccc3)cc12 [Example 6, 4-Methyl-2-phenyl-8-(1H-pyrazol-4-yl)-4H-pyrazolo[1,5-a]quinazolin-5-one] | < 1000 nM | > 250 °C
Cl.[2H]C([2H])([2H])n1c(=O)c2ccc(-c3ccc(N)nc3)cc2n2nc(C3CCCC3)cc12 [Example 67, 8-(6-Amino-pyridin-3-yl)-2-cyclopentyl-4-methyl(D3)-4H-pyrazolo[1,5-a]quinazolin-5-one] | < 1000 nM | 
Cn1c(=O)c2ccc(-c3ccc(N)nc3)cc2n2nc(C3CCCCCC3)cc12 [Example 76, 8-(6-Amino-pyridin-3-yl)-2-cycloheptyl-4-methyl-4H-pyrazolo[1,5-a]quinazolin-5-one] | < 1000 nM | 
CCn1c(=O)c2ccc(-c3cc(C)nc(C)c3)cc2n2nc(C3CCCCCC3)cc12 [Example 78, 2-Cycloheptyl-8-(2,6-dimethyl-pyridin-4-yl)-4-ethyl-4H-pyrazolo[1,5-a]quinazolin-5-one] | < 1000 nM | 

The remaining lines, values ahead:

IC50 [1] | melting point | Structure (SMILES)
< 1000 nM | > 250 °C | Cl.Nc1ccc(-c2ccc3c(=O)n(CC(F)F)c4cc(C5CCOCC5)nn4c3c2)cn1 [Example 103, 8-(6-Amino-pyridin-3-yl)-4-(2,2-difluoro-ethyl)-2-(tetrahydro-pyran-4-yl)-4H-pyrazolo[1,5-a]quinazolin-5-one]
< 1000 nM | > 250 °C | Cl.Cn1c(=O)c2ccc(-c3ccc(N)nc3)cc2n2nc(C3CCOCC3)cc12 [Example 86, 8-(6-Amino-pyridin-3-yl)-4-methyl-2-(tetrahydro-pyran-4-yl)-4H-pyrazolo[1,5-a]quinazolin-5-one]
< 1000 nM | > 250 °C | Cn1c(=O)c2ccc(-c3ccnc(F)c3)cc2n2nc(-c3ccnc(C(F)(F)F)c3)cc12 [Example 140, 8-(2-Fluoro-pyridin-4-yl)-4-methyl-2-(2-trifluoromethyl-pyridin-4-yl)-4H-pyrazolo[1,5-a]quinazolin-5-one]
< 1000 nM | > 250 °C | Cl.Nc1ccc(-c2ccc3c(=O)n(CC(F)(F)F)c4cc(C5CCOCC5)nn4c3c2)cn1 [Example 104, 8-(6-Amino-pyridin-3-yl)-2-(tetrahydro-pyran-4-yl)-4-(2,2,2-trifluoro-ethyl)-4H-pyrazolo[1,5-a]quinazolin-5-one]
< 1000 nM | > 250 °C | Cn1cc(-c2ccc3c(=O)n(C)c4cc(-c5cccnc5)nn4c3c2)cn1 [Example 85, 4-Methyl-8-(1-methyl-1H-pyrazol-4-yl)-2-pyridin-3-yl-4H-pyrazolo[1,5-a]quinazolin-5-one]
< 1000 nM | 218 to 229 °C | Cl.Cn1c(=O)c2ccc(-c3ccc(N)nc3)cc2n2nc(-c3ccco3)cc12 [Example 82, 8-(6-Amino-pyridin-3-yl)-2-furan-2-yl-4-methyl-4H-pyrazolo[1,5-a]quinazolin-5-one]
< 1000 nM | > 250 °C | Cc1ncncc1-c1ccc2c(=O)n(C)c3cc(-c4ccnc(C(F)(F)F)c4)nn3c2c1.Cl [Example 144, 4-Methyl-8-(4-methyl-pyrimidin-5-yl)-2-(2-trifluoromethyl-pyridin-4-yl)-4H-pyrazolo[1,5-a]quinazolin-5-one]
< 1000 nM | > 250 °C | Cc1cc(-c2ccc3c(=O)n(C)c4cc(C5CCOCC5)nn4c3c2)cc(C)n1.Cl [Example 97, 8-(2,6-Dimethyl-pyridin-4-yl)-4-methyl-2-(tetrahydro-pyran-4-yl)-4H-pyrazolo[1,5-a]quinazolin-5-one]
< 1000 nM | > 250 °C | Cc1cc(-c2ccc3c(=O)n(C)c4cc(C5CCOC5)nn4c3c2)cc(C)n1.Cl (stereo not shown) [Example 106, 8-(2,6-Dimethyl-pyridin-4-yl)-4-methyl-2-(tetrahydro-furan-3-yl)-4H-pyrazolo[1,5-a]quinazolin-5-one]
< 1000 nM | > 250 °C | Cc1cc(-c2ccc3c(=O)n(C)c4cc(-c5ccccc5)cn4c3c2)cc(C)n1.Cl [Example 111, 8-(2,6-Dimethyl-pyridin-4-yl)-4-methyl-2-phenyl-4H-pyrrolo[1,2-a]quinazolin-5-one]
< 1000 nM |  | Cc1cc(-c2ccc3c(=O)n(C)c4cc(C5CCOCC5)nn4c3c2)ccn1 [Example 93, 4-Methyl-8-(2-methyl-pyridin-4-yl)-2-(tetrahydro-pyran-4-yl)-4H-pyrazolo[1,5-a]quinazolin-5-one]
< 1000 nM |  | Cc1cc(-c2cc3n(C)c(=O)c4ccc(-c5ccc(N)nc5)cc4n3n2)cc(C)n1 [Example 112, 8-(6-Amino-pyridin-3-yl)-2-(2,6-dimethyl-pyridin-4-yl)-4-methyl-4H-pyrazolo[1,5-a]quinazolin-5-one]
< 1000 nM |  | Cc1ccc(-c2ccc3c(=O)n(C)c4cc(C5CCOCC5)nn4c3c2)cn1 [Example 95, 4-Methyl-8-(6-methyl-pyridin-3-yl)-2-(tetrahydro-pyran-4-yl)-4H-pyrazolo[1,5-a]quinazolin-5-one]
< 1000 nM |  | Cc1cc(-c2cc3n(C)c(=O)c4ccc(-c5cccnc5C)cc4n3n2)cc(C)n1 [Example 113, 2-(2,6-Dimethyl-pyridin-4-yl)-4-methyl-8-(2-methyl-pyridin-3-yl)-4H-pyrazolo[1,5-a]quinazolin-5-one]
